Source: article PMC8765437, “GSK3640254 Is a Novel HIV-1 Maturation Inhibitor with an Optimized Virology Profile” (Antimicrobial Agents and Chemotherapy, 2022)
Where two headings read alike, the source gives them in different places.

System: NLRepRlucP373S viruses containing Gag SDMs or gag/pr genes from clinical isolates
Test: Multiple-cycle replication assay, NLRepRluc reporter viruses in MT-2 cells, luciferase endpoint
Type: cell-based, HIV-1
Source text: Multiple-cycle assays using recombinant viruses or clinical isolates were used to assess MI antiviral activity as described previously ([10]). pNLRepRlucP373S (the P373S change is in the Gag gene and converts an outlier polymorphism in the NL4-3 gene to the prevalent amino acid in the population) plasmids containing SDMs in Gag or gag/pr regions from clinical isolates were transfected into HEK 293T cells, and the supernatant containing recombinant virus was harvested after 4 to 5 days. Virus was used to infect MT-2 cells in the presence of a 3-fold serially diluted compound at a final dimethyl sulfoxide (DMSO) concentration of 1%. The inocula of the reporter viruses were determined based on the luciferase activity detected on day 4 postinfection. The MOI (ratio of infectious virions to target cells) of reporter-free laboratory strains and clinical isolates was 0.005, as derived from a tissue culture infectious dose study. Clinical isolates or reporter-free viruses were examined in the reporter CEM-NKR-CCR5-Luc cells or PBMCs at MOIs ranging from 0.005 to 0.01. Each infection started with a drug-free preincubation of the cell-virus mixtures, performed at 37°C and 5% CO2 for either 1 h at 2 times the final cell density (reporter viruses) or 1 h (reporter-free laboratory strains) or 3 h (clinical isolates) using cell pellets in 0.5 mL of medium. After preincubation, cell-virus mixtures were added to compound-containing 96-well plates for a final cell density of either 10,000 (MT-2 cells for reporter viruses), 20,000 (MT-2 and PM1 cells for reporter-free laboratory strains), 200,000 (PBMCs for clinical isolates), or 500,000 (CEM-NKR-CCR5-Luc for reporter-free laboratory strains) cells per well. The CEM-NKR-CCR5-Luc cell assay was performed in the presence of Polybrene (10 μg/mL). Virus growth was determined on days 4 to 5 postinfection for reporter variants or days 5 to 11 for the other viruses. The reporter viruses were detected by a luciferase assay according to manufacturer protocols (Brite-Glo luciferase kit [Promega] for CEM-NKR-CCR5-Luc cells and Dual-Luciferase Reporter 1000 assay system [Promega] for the other cells), and luminescence was detected on a Wallac Trilux. The growth of clinical isolates in PBMCs was quantitated by reverse transcriptase activity in a 96-well scintillation proximity assay (SPA). Twenty microliters of culture supernatants was mixed with 40 μL of reaction cocktail (62.5 mM Tris-HCl [pH 7.8], 100 mM KCl, 0.0625% NP-40, 2.5 mM dithiothreitol [DTT], 6.25 mM MgCl2, 1 mM EGTA, 6.25 μg/mL of poly rA, 2.5 μg/mL of streptavidin SPA beads prebound with biotinylated-dT12-18, and 1 μCi of [^3H]TTP). Mixtures were incubated at 37°C for ∼3 h and quenched with 100 μl of 0.25 M EDTA per well. Luminescence was detected on a Wallac Trilux programmed for tritium counting with SPA beads in opaque plates. The growth of the reporter-free laboratory M-tropic strains and clinical isolates was monitored by a p24 enzyme-linked immunosorbent assay (ELISA; PerkinElmer Life Sciences, Waltham, MA) performed on culture supernatants. […] A 1:1,000 dilution of cell supernatant in PBS was generally observed to fall in the dynamic range of the endpoint signal.
Maximal percent inhibition values were calculated as MPI = 100 – (mean signals at the 2 highest concentrations of compound/mean signal of 2 no-drug control wells) × 100.

C=C(C)[C@@H]1CC[C@]2(NCCN3CCS(=O)(=O)CC3)CC[C@]3(C)[C@H](CC[C@@H]4[C@@]5(C)CC=C(c6ccc(C(=O)O)cc6)C(C)(C)[C@@H]5CC[C@]43C)[C@@H]12 [GSK’795, reference compound]
MPI (A366V-containing viruses): −13 to 408% | EC50 (Human immunodeficiency virus 1, MT2, Table S1, SDM A326T/V362I/V370A): ≥ 3000 nM | EC50 (Human immunodeficiency virus 1, MT2, Table S1, SDM S368R/V370A): 2 nM | EC50 (Human immunodeficiency virus 1, MT2, Table S1, SDM T332S/V362I/PrR41G): 700 nM | EC50 (Human immunodeficiency virus 1, MT2, Table S1, SDM V362I/V370A): ≥ 3000 nM | EC50 (Human immunodeficiency virus 1, MT2, Table S1, SDM V370A): 6 nM | EC50 (Human immunodeficiency virus 1, MT2, Table S1, SDM V370A/ΔT371): 7 nM | EC50 (Human immunodeficiency virus 1, MT2, Table S1, SDM ΔV370): 6 nM | EC50 (Human immunodeficiency virus 1, MT2, Table S1, subtype B SDM Wild-type (V, QVT)): 5 nM | EC50 (Human immunodeficiency virus 1, MT2, read-out: EC50 (range), Subtype C gag/pr viruses, n=11): 3 to 22 nM | EC50 (Human immunodeficiency virus 1, MT2, read-out: EC50 (range), V362I only viruses, n=9): 3 to 54 nM | EC50 (Human immunodeficiency virus 1, MT2, read-out: EC50 (range), Wild-type subtype B, n=5): 1 to 6 nM | EC50 (Human immunodeficiency virus 1, MT2, read-out: Mean ± SD EC50, A366V-containing viruses (A366V, V362I/A366V, V362I/A366V/V370M, A366V/V370M)): > 3000 nM | EC50 (Human immunodeficiency virus 1, MT2, read-out: Mean ± SD EC50, SDM A326T/V362I/V370A): > 3000 nM | EC50 (Human immunodeficiency virus 1, MT2, read-out: Mean ± SD EC50, SDM A364V): > 3000 nM | EC50 (Human immunodeficiency virus 1, MT2, read-out: Mean ± SD EC50, SDM R361K/V362I/L363M): 552 ± 971 nM | EC50 (Human immunodeficiency virus 1, MT2, read-out: Mean ± SD EC50, SDM T332S/V362I/prR41G): 704 ± 606 nM | EC50 (Human immunodeficiency virus 1, MT2, read-out: Mean ± SD EC50, SDM V362I/V370A): > 3000 nM | EC50 (Human immunodeficiency virus 1, MT2, read-out: Mean ± SD EC50, SDM V370A): 6 nM | EC50 (Human immunodeficiency virus 1, MT2, read-out: Mean ± SD EC50, SDM Wild type): 5 ± 3 nM | EC50 (Human immunodeficiency virus 1, MT2, read-out: Mean ± SD EC50, SDM ΔV370): 6 ± 2 nM | EC50 (Human immunodeficiency virus 1, MT2, read-out: Mean ± SD EC50, Subtype B gag/pr viruses, n=24): 66 nM | EC50 (Human immunodeficiency virus 1, MT2, read-out: Mean ± SD EC50, Subtype C gag/pr viruses, n=11): 9.1 ± 5.6 nM | EC50 (Human immunodeficiency virus 1, MT2, read-out: Mean ± SD EC50, V362I only viruses, n=9): 11.1 ± 16.3 nM | EC50 (Human immunodeficiency virus 1, MT2, read-out: Mean ± SD EC50, V362I/ΔV370 virus, n=1): 1400 nM | EC50 (Human immunodeficiency virus 1, MT2, read-out: Mean ± SD EC50, Wild-type subtype B (V362, Q369, V370, T371), n=5): 2.8 ± 2.5 nM | EC50 (Human immunodeficiency virus 1, MT2, read-out: Median EC50, Subtype B gag/pr viruses, n=24): 5 nM | EC50 (Human immunodeficiency virus 1, MT2, read-out: Median EC50, Subtype C gag/pr viruses, n=11): 7 nM | EC50 (Human immunodeficiency virus 1, MT2, read-out: Median EC50, V362I only viruses, n=9): 5 nM | EC50 (Human immunodeficiency virus 1, MT2, read-out: Median EC50, Wild-type subtype B, n=5): 1 nM | EC90 (Human immunodeficiency virus 1, MT2, read-out: PBA EC90, Table S1, SDM R361K/V362I/L363M): 321000 nM | EC90 (Human immunodeficiency virus 1, MT2, read-out: PBA EC90, Table S1, SDM S368R/V370A): 40 nM | EC90 (Human immunodeficiency virus 1, MT2, read-out: PBA EC90, Table S1, SDM T332S/V362I/PrR41G): 422000 nM | EC90 (Human immunodeficiency virus 1, MT2, read-out: PBA EC90, Table S1, SDM V370A): 50 nM | EC90 (Human immunodeficiency virus 1, MT2, read-out: PBA EC90, Table S1, SDM V370A/ΔT371): 230 nM | EC90 (Human immunodeficiency virus 1, MT2, read-out: PBA EC90, Table S1, SDM ΔV370): 1030 nM | EC90 (Human immunodeficiency virus 1, MT2, read-out: PBA EC90, Table S1, subtype B SDM Wild-type (V, QVT)): 110 nM | EC90 (Human immunodeficiency virus 1, MT2, read-out: PBA EC90, subtype B gag/pr 4NRR (Wild-type)): 70 nM | EC90 (Human immunodeficiency virus 1, MT2, read-out: PBA EC90, subtype B gag/pr 28-MDR (Wild-type)): 100 nM | EC90 (Human immunodeficiency virus 1, MT2, read-out: PBA EC90, subtype B gag/pr 92BR014 (V370M)): 370 nM | EC90 (Human immunodeficiency virus 1, MT2, read-out: PBA EC90, subtype B gag/pr 92BR018 (V, QAΔ)): 970 nM | EC90 (Human immunodeficiency virus 1, MT2, read-out: PBA EC90, subtype B gag/pr 92TH014 (V362I)): 670 nM | EC90 (Human immunodeficiency virus 1, MT2, read-out: PBA EC90, subtype B gag/pr 92TH026 (V362I)): 210 nM | EC90 (Human immunodeficiency virus 1, MT2, read-out: PBA EC90, subtype B gag/pr 92US072 (V362I)): 130 nM | EC90 (Human immunodeficiency virus 1, MT2, read-out: PBA EC90, subtype B gag/pr 92US729 (Wild-type)): 70 nM | EC90 (Human immunodeficiency virus 1, MT2, read-out: PBA EC90, subtype B gag/pr 93BR008 (V362I)): 120 nM | EC90 (Human immunodeficiency virus 1, MT2, read-out: PBA EC90, subtype B gag/pr 93BR009 (V370M)): 130 nM | EC90 (Human immunodeficiency virus 1, MT2, read-out: PBA EC90, subtype B gag/pr 93BR017 (V, QAΔ)): 600 nM | EC90 (Human immunodeficiency virus 1, MT2, read-out: PBA EC90, subtype B gag/pr 93BR022 (V, QAΔ)): 630 nM | EC90 (Human immunodeficiency virus 1, MT2, read-out: PBA EC90, subtype B gag/pr 93TH0647 (V362I)): 60 nM | EC90 (Human immunodeficiency virus 1, MT2, read-out: PBA EC90, subtype B gag/pr 93US141 (V362I)): 250 nM | EC90 (Human immunodeficiency virus 1, MT2, read-out: PBA EC90, subtype B gag/pr 411-1-C (Wild-type)): 40 nM | EC90 (Human immunodeficiency virus 1, MT2, read-out: PBA EC90, subtype B gag/pr 220162 (Wild-type)): 600 nM | EC90 (Human immunodeficiency virus 1, MT2, read-out: PBA EC90, subtype B gag/pr 400024 (V370M)): 79000 nM | EC90 (Human immunodeficiency virus 1, MT2, read-out: PBA EC90, subtype B gag/pr 400051 (V370A)): 30 nM | EC90 (Human immunodeficiency virus 1, MT2, read-out: PBA EC90, subtype B gag/pr 1000038 (V362I/V370A)): 977000 nM
